Results taken from the supplement of paper PMC11451515.

Assays:
Conditions in all cases: 48 h
SEM cells [1] = assay: AUC of viability dose-response curve (% viability x log10 dose units); higher = less sensitive
In short: (§1)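 Leukemia cells adapted to each medium were seeded at 500 or 1000 cells/well in 1536-well plates and dosed with library compounds in DMSO at 11 threefold doses from 47 μM to 0.79 nM for 48 h at 37°C. CellTiter-Glo One luminescence was normalised per plate to DMSO and cell-free wells, then fitted with a four-parameter log-logistic model over log10 doses. Area under the curve was taken from this fit by the trapezoidal rule, with curves above full viability scaled and curves failing quality control removed.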

NOMO1 [2] = assay: as above
In short: as §1

P12-Ichikawa [3] = assay: as above
In short: as §1

SEM cells [4] = assay: cell viability relative to DMSO control; higher = less cytotoxic
In short: (§2)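 NOMO1 or SEM (500 cells/well) or P12-Ichikawa (1000 cells/well) leukemia cells were adapted for at least four passages in each medium. They were seeded in 1536-well plates (5 μl) and pin-dosed with library compounds in DMSO over an 11-point threefold series, 47 μM to 0.79 nM. CellTiter-Glo One luminescence was read after 48 h at 37°C. Viability is the per-plate percentage relative to DMSO wells, with cell-free wells as background.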

NOMO1 [5] = assay: as above
In short: as §2

P12-Ichikawa [6] = assay: as above
In short: as §2

CN1\C(=C(\O)C2=CC=CC=C2[S+]1([O-])=O)C(=O)NC3=NC=C(C)S3
AUC of viability dose-response curve
Conditions | NOMO1 [2] | P12-Ichikawa [3] | SEM cells [1]
HPLM + 10% dialyzed FBS | 476 | 416 | 447
RPMI 5 mM glucose + 10% FBS | 449 | 392 | 427
RPMI 5 mM glucose + 10% dialyzed FBS | 410 | 420 | 430

cell viability [%]
Conditions | NOMO1 [5] | P12-Ichikawa [6] | SEM cells [4]
HPLM + 10% dialyzed FBS, 0.000781 µM | 101 | 95 | 94.9
HPLM + 10% dialyzed FBS, 0.00234 µM | 111 | 95.7 | 94.8
HPLM + 10% dialyzed FBS, 0.00702 µM | 101 | 93.9 | 98.2
HPLM + 10% dialyzed FBS, 0.0211 µM | 114 | 94.6 | 103
HPLM + 10% dialyzed FBS, 0.0632 µM | 99.5 | 99.3 | 87.8
HPLM + 10% dialyzed FBS, 0.19 µM | 116 | 100 | 85.2
HPLM + 10% dialyzed FBS, 0.569 µM | 113 | 98.4 | 90.2
HPLM + 10% dialyzed FBS, 1.71 µM | 116 | 98.3 | 83.1
HPLM + 10% dialyzed FBS, 5.12 µM | 102 | 101 | 99.9
HPLM + 10% dialyzed FBS, 15.4 µM | 86.1 | 97.5 | 96.7
HPLM + 10% dialyzed FBS, 46.1 µM | 116 | 112 | 102
RPMI 5 mM glucose + 10% FBS, 0.000781 µM | 81.1 | 91.8 | 74.8
RPMI 5 mM glucose + 10% FBS, 0.00234 µM | 91.5 | 91.7 | 81.5
RPMI 5 mM glucose + 10% FBS, 0.00702 µM | 88.4 | 88 | 94.5
RPMI 5 mM glucose + 10% FBS, 0.0211 µM | 91.7 | 86 | 97.7
RPMI 5 mM glucose + 10% FBS, 0.0632 µM | 98.7 | 93.8 | 78
RPMI 5 mM glucose + 10% FBS, 0.19 µM | 96.8 | 88.8 | 90.2
RPMI 5 mM glucose + 10% FBS, 0.569 µM | 101 | 84.8 | 103
RPMI 5 mM glucose + 10% FBS, 1.71 µM | 88.3 | 89 | 78.3
RPMI 5 mM glucose + 10% FBS, 5.12 µM | 96.7 | 95.4 | 104
RPMI 5 mM glucose + 10% FBS, 15.4 µM | 99.3 | 96.7 | 84
RPMI 5 mM glucose + 10% FBS, 46.1 µM | 95.9 | 112 | 91.3
RPMI 5 mM glucose + 10% dialyzed FBS, 0.000781 µM | 84.2 | 79.3 | 77.4
RPMI 5 mM glucose + 10% dialyzed FBS, 0.00234 µM | 86.3 | 92.8 | 99.6
RPMI 5 mM glucose + 10% dialyzed FBS, 0.00702 µM | 85.6 | 83.1 | 94.6
RPMI 5 mM glucose + 10% dialyzed FBS, 0.0211 µM | 81.9 | 91.4 | 97
RPMI 5 mM glucose + 10% dialyzed FBS, 0.0632 µM | 81.5 | 96.2 | 80.7
RPMI 5 mM glucose + 10% dialyzed FBS, 0.19 µM | 93.6 | 87 | 107
RPMI 5 mM glucose + 10% dialyzed FBS, 0.569 µM | 79.6 | 92.7 | 99.9
RPMI 5 mM glucose + 10% dialyzed FBS, 1.71 µM | 76 | 87.8 | 95.1
RPMI 5 mM glucose + 10% dialyzed FBS, 5.12 µM | 91.9 | 80.8 | 106
RPMI 5 mM glucose + 10% dialyzed FBS, 15.4 µM | 92.7 | 90 | 107
RPMI 5 mM glucose + 10% dialyzed FBS, 46.1 µM | 91.8 | 86.7 | 108

OC1=CC2=C(C(=C1)O)C(=O)\C=C(/O2)C3=CC=CC=C3
AUC of viability dose-response curve
Conditions | NOMO1 [2] | P12-Ichikawa [3] | SEM cells [1]
HPLM + 10% dialyzed FBS | 450 | 441 | 429
RPMI 5 mM glucose + 10% FBS | 453 | 443 | 410
RPMI 5 mM glucose + 10% dialyzed FBS | 456 | 446 | 423

cell viability [%]
Conditions | NOMO1 [5] | P12-Ichikawa [6] | SEM cells [4]
HPLM + 10% dialyzed FBS, 0.000781 µM | 106 | 104 | 89.7
HPLM + 10% dialyzed FBS, 0.00234 µM | 106 | 102 | 92.5
HPLM + 10% dialyzed FBS, 0.00702 µM | 103 | 105 | 93
HPLM + 10% dialyzed FBS, 0.0211 µM | 116 | 108 | 107
HPLM + 10% dialyzed FBS, 0.0632 µM | 109 | 110 | 94.5
HPLM + 10% dialyzed FBS, 0.19 µM | 116 | 108 | 112
HPLM + 10% dialyzed FBS, 0.569 µM | 108 | 103 | 94.4
HPLM + 10% dialyzed FBS, 1.71 µM | 118 | 110 | 115
HPLM + 10% dialyzed FBS, 5.12 µM | 121 | 104 | 85
HPLM + 10% dialyzed FBS, 15.4 µM | 93.6 | 77.9 | 61.9
HPLM + 10% dialyzed FBS, 46.1 µM | 20.2 | 3.28 | 8.24
RPMI 5 mM glucose + 10% FBS, 0.000781 µM | 101 | 104 | 88.2
RPMI 5 mM glucose + 10% FBS, 0.00234 µM | 97.8 | 104 | 103
RPMI 5 mM glucose + 10% FBS, 0.00702 µM | 92.1 | 107 | 106
RPMI 5 mM glucose + 10% FBS, 0.0211 µM | 97.5 | 111 | 94.2
RPMI 5 mM glucose + 10% FBS, 0.0632 µM | 100 | 115 | 105
RPMI 5 mM glucose + 10% FBS, 0.19 µM | 108 | 110 | 101
RPMI 5 mM glucose + 10% FBS, 0.569 µM | 92.7 | 101 | 92
RPMI 5 mM glucose + 10% FBS, 1.71 µM | 96.1 | 107 | 104
RPMI 5 mM glucose + 10% FBS, 5.12 µM | 101 | 103 | 77.2
RPMI 5 mM glucose + 10% FBS, 15.4 µM | 105 | 82.9 | 35.8
RPMI 5 mM glucose + 10% FBS, 46.1 µM | 15.6 | 3.34 | 4.9
RPMI 5 mM glucose + 10% dialyzed FBS, 0.000781 µM | 91.9 | 99.5 | 85.8
RPMI 5 mM glucose + 10% dialyzed FBS, 0.00234 µM | 103 | 103 | 96.6
RPMI 5 mM glucose + 10% dialyzed FBS, 0.00702 µM | 106 | 102 | 95.3
RPMI 5 mM glucose + 10% dialyzed FBS, 0.0211 µM | 104 | 99.9 | 91.5
RPMI 5 mM glucose + 10% dialyzed FBS, 0.0632 µM | 115 | 103 | 99.9
RPMI 5 mM glucose + 10% dialyzed FBS, 0.19 µM | 102 | 100 | 97.7
RPMI 5 mM glucose + 10% dialyzed FBS, 0.569 µM | 115 | 114 | 97.3
RPMI 5 mM glucose + 10% dialyzed FBS, 1.71 µM | 112 | 104 | 111
RPMI 5 mM glucose + 10% dialyzed FBS, 5.12 µM | 98.9 | 103 | 94.5
RPMI 5 mM glucose + 10% dialyzed FBS, 15.4 µM | 98.3 | 84.4 | 59.6
RPMI 5 mM glucose + 10% dialyzed FBS, 46.1 µM | 27.6 | 4.92 | 11.9

Nc1nc(N)c2nc(CNc3ccc(C(=O)NC(CCC(=O)O)C(=O)O)cc3)cnc2n1 (centres undefined)
AUC of viability dose-response curve
Conditions | NOMO1 [2] | P12-Ichikawa [3] | SEM cells [1]
HPLM + 10% dialyzed FBS | 344 | 283 | 290
RPMI 5 mM glucose + 10% FBS | 414 | 313 | 394
RPMI 5 mM glucose + 10% dialyzed FBS | 286 | 272 | 247

cell viability [%]
Conditions | NOMO1 [5] | P12-Ichikawa [6] | SEM cells [4]
HPLM + 10% dialyzed FBS, 0.000781 µM | 105 | 103 | 104
HPLM + 10% dialyzed FBS, 0.00234 µM | 123 | 111 | 114
HPLM + 10% dialyzed FBS, 0.00702 µM | 118 | 110 | 110
HPLM + 10% dialyzed FBS, 0.0211 µM | 112 | 114 | 127
HPLM + 10% dialyzed FBS, 0.0632 µM | 97.5 | 59.2 | 57.2
HPLM + 10% dialyzed FBS, 0.19 µM | 70.4 | 47.7 | 36.6
HPLM + 10% dialyzed FBS, 0.569 µM | 49.8 | 31 | 39.5
HPLM + 10% dialyzed FBS, 1.71 µM | 57.1 | 31.8 | 45.6
HPLM + 10% dialyzed FBS, 5.12 µM | 57.4 | 44 | 48.6
HPLM + 10% dialyzed FBS, 15.4 µM | 61.4 | 39.6 | 41.8
HPLM + 10% dialyzed FBS, 46.1 µM | 65.2 | 29.7 | 46.5
RPMI 5 mM glucose + 10% FBS, 0.000781 µM | 97.1 | 103 | 111
RPMI 5 mM glucose + 10% FBS, 0.00234 µM | 95.9 | 103 | 115
RPMI 5 mM glucose + 10% FBS, 0.00702 µM | 103 | 103 | 120
RPMI 5 mM glucose + 10% FBS, 0.0211 µM | 102 | 123 | 110
RPMI 5 mM glucose + 10% FBS, 0.0632 µM | 92.9 | 71.2 | 92.2
RPMI 5 mM glucose + 10% FBS, 0.19 µM | 118 | 37.9 | 56.5
RPMI 5 mM glucose + 10% FBS, 0.569 µM | 103 | 46.6 | 83
RPMI 5 mM glucose + 10% FBS, 1.71 µM | 106 | 47 | 76.4
RPMI 5 mM glucose + 10% FBS, 5.12 µM | 112 | 38.5 | 99.7
RPMI 5 mM glucose + 10% FBS, 15.4 µM | 133 | 51.2 | 86.5
RPMI 5 mM glucose + 10% FBS, 46.1 µM | 117 | 61 | 87.5
RPMI 5 mM glucose + 10% dialyzed FBS, 0.000781 µM | 119 | 105 | 96.2
RPMI 5 mM glucose + 10% dialyzed FBS, 0.00234 µM | 117 | 95.5 | 103
RPMI 5 mM glucose + 10% dialyzed FBS, 0.00702 µM | 118 | 105 | 104
RPMI 5 mM glucose + 10% dialyzed FBS, 0.0211 µM | 131 | 112 | 104
RPMI 5 mM glucose + 10% dialyzed FBS, 0.0632 µM | 72.7 | 86 | 30.5
RPMI 5 mM glucose + 10% dialyzed FBS, 0.19 µM | 42.9 | 28.1 | 23.7
RPMI 5 mM glucose + 10% dialyzed FBS, 0.569 µM | 38.3 | 25.8 | 23.1
RPMI 5 mM glucose + 10% dialyzed FBS, 1.71 µM | 45 | 24 | 23.1
RPMI 5 mM glucose + 10% dialyzed FBS, 5.12 µM | 46 | 25.9 | 28.8
RPMI 5 mM glucose + 10% dialyzed FBS, 15.4 µM | 38.9 | 26.2 | 29.6
RPMI 5 mM glucose + 10% dialyzed FBS, 46.1 µM | 40.1 | 26.2 | 23.8
